Experimental data as given in patent US8106055B2, “Substituted amide compounds” (Gruenenthal GmbH, priority 2007, dated 2012).

target: T1, serotonin (5-HT) reuptake (Rattus norvegicus, UniProt P31652); assay: Inhibition of serotonin (5HT) reuptake in synaptosomes from rat brain; type: biochemical; details: test concentration of 10 μM
T1 construct: synaptosomes are freshly isolated from areas of the rat brain; from tissue; host or cells: rat brain synaptosomes (P2 fraction)
Procedure, shortened: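 Freshly isolated rat brain synaptosomes (P2 fraction) used for 5-HT reuptake. Test compound at 10 μM, activity given as % inhibition.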

T1 sequence (P31652 whole entry): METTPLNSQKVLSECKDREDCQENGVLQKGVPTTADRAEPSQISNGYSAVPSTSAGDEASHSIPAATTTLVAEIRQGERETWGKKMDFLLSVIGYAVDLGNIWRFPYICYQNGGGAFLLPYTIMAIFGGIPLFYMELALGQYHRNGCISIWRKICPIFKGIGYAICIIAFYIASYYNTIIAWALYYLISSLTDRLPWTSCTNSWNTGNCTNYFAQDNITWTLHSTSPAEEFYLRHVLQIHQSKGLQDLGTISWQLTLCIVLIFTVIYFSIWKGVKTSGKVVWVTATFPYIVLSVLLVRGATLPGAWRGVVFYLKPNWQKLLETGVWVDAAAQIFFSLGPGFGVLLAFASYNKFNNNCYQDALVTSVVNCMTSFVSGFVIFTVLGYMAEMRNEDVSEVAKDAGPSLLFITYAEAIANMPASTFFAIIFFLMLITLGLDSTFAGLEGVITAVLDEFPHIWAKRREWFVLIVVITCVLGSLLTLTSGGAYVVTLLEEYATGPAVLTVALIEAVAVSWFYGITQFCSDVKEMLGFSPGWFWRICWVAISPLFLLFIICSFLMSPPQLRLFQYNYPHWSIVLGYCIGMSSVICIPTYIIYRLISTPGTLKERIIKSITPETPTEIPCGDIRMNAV

Structure (SMILES) | 5-HT (inhibition of reuptake of serotonin, % inhibition)
Cc1ccc(S(=O)(=O)N2CCC(OCC(=O)NCC3CCC(C(c4ccc(F)cc4)N(C)C)CC3)C2)cc1 (stereo not drawn) [Example 447] | 95%
COc1cc(C)c(S(=O)(=O)N(CCOCC(=O)NCCC2CCC(C(c3cccc(F)c3)N(C)C)CC2)Cc2ccccc2)c(C)c1C (stereo not drawn) [Example 436] | 88%
CN(C)C(c1ccc(F)cc1)C1CCC(NC(=O)COC2CCN(S(=O)(=O)c3ccc(Cl)cc3)C2)CC1 (stereo not drawn) [Example 370] | 83%
COc1cc(C)c(S(=O)(=O)N2CCCC(OCC(=O)NC3CCC(C(c4ccc(F)cc4)N(C)C)CC3)C2)c(C)c1C (stereo not drawn) [Example 435] | 91%
COc1cc(C)c(S(=O)(=O)N(CCOCC(=O)NC2CCC(C(c3cccc(F)c3)N(C)C)CC2)Cc2ccccc2)c(C)c1 (stereo not drawn) [Example 372] | 89%
COc1ccc(S(=O)(=O)N2Cc3ccccc3CC2COCC(=O)NCC2CCC(C(CCc3ccccc3)N(C)C)CC2)cc1 (stereo not drawn) [Example 373] | 85%
CN(C)C(c1ccc(Cl)cc1)C1CCC(CCNC(=O)COC2CCN(S(=O)(=O)c3ccc(F)cc3)C2)CC1 (stereo not drawn) [Example 440] | 95%
CN(C)C(c1ccc(Cl)cc1)C1CCC(CCNC(=O)COC2CCN(S(=O)(=O)c3cccc(C(F)(F)F)c3)C2)CC1 (stereo not drawn) [Example 431] | 93%
COc1cc(C)c(S(=O)(=O)N2CCC(OCC(=O)NCC3CCC(C(c4ccc(F)cc4)N(C)C)CC3)C2)c(C)c1C (stereo not drawn) [Example 427] | 94%
Cc1ccc(S(=O)(=O)N(C)CCOCC(=O)NC2CCC(C(c3ccc(F)cc3)N(C)C)CC2)cc1 (stereo not drawn) [Example 448] | 94%
COc1cc(C)c(S(=O)(=O)N2CCC(CCOCC(=O)NCCC3CCC(C(c4cccc(F)c4)N(C)C)CC3)CC2)c(C)c1C (stereo not drawn) [Example 397] | 93%
COc1cc(C)c(S(=O)(=O)N2CCC(OCC(=O)NC3CCC(C(c4ccc(F)cc4)N(C)C)CC3)C2)c(C)c1 (stereo not drawn) [Example 441] | 99%
COc1cc(C)c(S(=O)(=O)N2CCC(OCC(=O)NC3CCC(C(c4ccc(F)cc4)N(C)C)CC3)C2)c(C)c1C (stereo not drawn) [Example 365] | 90%
COc1ccc(S(=O)(=O)N2Cc3ccccc3CC2COCC(=O)NCCC2CCC(C(c3ccc(Cl)cc3)N(C)C)CC2)cc1 (stereo not drawn) [Example 374] | 90%
Cc1cc(C)c(S(=O)(=O)N2CCC(OCC(=O)NCC3CCC(C(c4ccc(Cl)cc4)N(C)C)CC3)C2)c(C)c1 (stereo not drawn) [Example 393] | 70%
CN(C)C(CCc1ccccc1)C1CCC(CNC(=O)COCCN(C)S(=O)(=O)c2ccc(Cl)cc2)CC1 (stereo not drawn) [Example 445] | 87%
COc1ccc(S(=O)(=O)N2CCCCC2COCC(=O)NCC2CCC(C(c3ccc(Cl)cc3)N(C)C)CC2)cc1OC (stereo not drawn) [Example 367] | 89%
CCN(CCOCC(=O)NCCC1CCC(C(c2ccc(F)cc2)N(C)C)CC1)S(=O)(=O)c1c(C)cc(OC)c(C)c1C (stereo not drawn) [Example 413] | 96%
COc1ccc(S(=O)(=O)N2CCCC2COCC(=O)NCCC2CCC(C(c3ccc(F)cc3)N(C)C)CC2)cc1 (stereo not drawn) [Example 409] | 97%

Structure (SMILES) | 5-HT (inhibition of reuptake of serotonin, % inhibition)
Cc1cc(C)c(S(=O)(=O)N(C)CCOCC(=O)NCCC2CCC(C(c3ccc(Cl)cc3)N(C)C)CC2)c(C)c1 (stereo not drawn) [Example 416] | 103%
COc1cc(C)c(S(=O)(=O)N2CCN(CCOCC(=O)NCC3CCC(C(c4ccc(F)cc4)N(C)C)CC3)CC2)c(C)c1C (stereo not drawn) [Example 366] | 96%
CN(C)C(c1ccc(F)cc1)C1CCC(CCNC(=O)COCCN(C)S(=O)(=O)c2cccc(C(F)(F)F)c2)CC1 (stereo not drawn) [Example 368] | 95%
COc1ccc(S(=O)(=O)N2CCCCC2CCOCC(=O)NCCC2CCC(C(c3ccc(Cl)cc3)N(C)C)CC2)cc1 (stereo not drawn) [Example 383] | 94%
CN(C)C(c1ccc(Cl)cc1)C1CCC(CCNC(=O)COC2CCCN(S(=O)(=O)c3ccccc3)C2)CC1 (stereo not drawn) [Example 395] | 96%
COc1ccc(S(=O)(=O)N2CCCCC2COCC(=O)NCC2CCC(C(c3ccc(F)cc3)N(C)C)CC2)c(OC)c1 (stereo not drawn) [Example 405] | 89%
CN(C)C(c1cccc(F)c1)C1CCC(CCNC(=O)COC2CCN(S(=O)(=O)c3ccc(F)cc3)C2)CC1 (stereo not drawn) [Example 407] | 95%
CN(C)C(c1ccc(F)cc1)C1CCC(CNC(=O)COCC2CCCN(S(=O)(=O)c3ccccc3)C2)CC1 (stereo not drawn) [Example 424] | 96%
CN(C)C(c1ccc(Cl)cc1)C1CCC(CNC(=O)COCCN(C)S(=O)(=O)c2ccc(OC(F)(F)F)cc2)CC1 (stereo not drawn) [Example 411] | 91%
Cc1cc(C)c(S(=O)(=O)N2CCC(OCC(=O)NCC3CCC(C(c4ccc(F)cc4)N(C)C)CC3)C2)c(C)c1 (stereo not drawn) [Example 432] | 82%
CN(C)C(c1ccc(F)cc1)C1CCC(CNC(=O)COCCN(C)S(=O)(=O)c2cccc(C(F)(F)F)c2)CC1 (stereo not drawn) [Example 390] | 90%
COc1cc(C)c(S(=O)(=O)N(CCOCC(=O)NCC2CCC(C(c3cccc(F)c3)N(C)C)CC2)Cc2ccccc2)c(C)c1 (stereo not drawn) [Example 388] | 91%
CN(C)C(c1ccc(Cl)cc1)C1CCC(CCNC(=O)COCCN(Cc2ccccc2)S(=O)(=O)c2ccccc2)CC1 (stereo not drawn) [Example 426] | 95%
CCN(CCOCC(=O)NCCC1CCC(C(c2ccc(Cl)cc2)N(C)C)CC1)S(=O)(=O)c1c(C)cc(OC)c(C)c1C (stereo not drawn) [Example 434] | 82%
COc1cc(C)c(S(=O)(=O)N2CCC(OCC(=O)NCC3CCC(C(c4ccc(Cl)cc4)N(C)C)CC3)C2)c(C)c1C (stereo not drawn) [Example 428] | 88%
COc1cc(C)c(S(=O)(=O)N(CCOCC(=O)NCC2CCC(C(c3cccc(F)c3)N(C)C)CC2)Cc2ccccc2)c(C)c1C (stereo not drawn) [Example 414] | 67%
CN(C)C(c1ccc(Cl)cc1)C1CCC(CNC(=O)COC2CCN(S(=O)(=O)c3ccc(F)cc3)C2)CC1 (stereo not drawn) [Example 394] | 93%
CN(C)C(c1ccc(F)cc1)C1CCC(CNC(=O)COCCN2CCN(S(=O)(=O)c3ccccc3)CC2)CC1 (stereo not drawn) [Example 433] | 95%
CN(C)C(c1ccc(Cl)cc1)C1CCC(CCNC(=O)COCCN(C)S(=O)(=O)c2c(Cl)cc(Cl)cc2Cl)CC1 (stereo not drawn) [Example 442] | 91%

Structure (SMILES) | 5-HT (inhibition of reuptake of serotonin, % inhibition)
CN(C)C(c1ccc(Cl)cc1)C1CCC(CCNC(=O)COC2CCCCC2N(C)S(=O)(=O)c2ccc(Cl)c(Cl)c2)CC1 (stereo not drawn) [Example 410] | 78%
CN(C)C(c1ccc(F)cc1)C1CCC(NC(=O)COC2CCCN(S(=O)(=O)c3ccccc3)C2)CC1 (stereo not drawn) [Example 423] | 95%
CN(C)C(c1ccc(F)cc1)C1CCC(CNC(=O)COCCN(C)S(=O)(=O)c2c(Cl)cc(Cl)cc2Cl)CC1 (stereo not drawn) [Example 404] | 96%
CN(C)C(c1ccc(F)cc1)C1CCC(NC(=O)COC2CCN(S(=O)(=O)c3ccc(F)cc3)C2)CC1 (stereo not drawn) [Example 381] | 79%
COc1cc(C)c(S(=O)(=O)N2CCCC(OCC(=O)NCC3CCC(C(c4ccc(F)cc4)N(C)C)CC3)C2)c(C)c1C (stereo not drawn) [Example 418] | 98%
CN(C)C(c1ccc(F)cc1)C1CCC(CNC(=O)COCCN(C)S(=O)(=O)c2ccc(F)cc2)CC1 (stereo not drawn) [Example 400] | 103%
COc1cc(C)c(S(=O)(=O)N(C)CCOCC(=O)NC2CCC(C(c3ccc(F)cc3)N(C)C)CC2)c(C)c1 (stereo not drawn) [Example 422] | 81%
CN(C)C(CCc1ccccc1)C1CCC(CNC(=O)COCC2CCCN2S(=O)(=O)c2ccc(Cl)c(Cl)c2)CC1 (stereo not drawn) [Example 415] | 88%
Cc1ccc(S(=O)(=O)N2CCC(OCC(=O)NC3CCC(C(c4ccc(F)cc4)N(C)C)CC3)C2)cc1 (stereo not drawn) [Example 371] | 85%
COc1cc(C)c(S(=O)(=O)N2CCCC(OCC(=O)NCC3CCC(C(c4ccc(Cl)cc4)N(C)C)CC3)C2)c(C)c1C (stereo not drawn) [Example 449] | 73%
CN(C)C(c1ccc(F)cc1)C1CCC(NC(=O)COC2CCN(S(=O)(=O)c3ccccc3)CC2)CC1 (stereo not drawn) [Example 408] | 93%
CN(C)C(c1ccc(F)cc1)C1CCC(NC(=O)COCCN(C)S(=O)(=O)c2c(Cl)cc(Cl)cc2Cl)CC1 (stereo not drawn) [Example 382] | 96%
CN(C)C(c1ccc(Cl)cc1)C1CCC(CCNC(=O)COC2CCN(S(=O)(=O)c3ccccc3)CC2)CC1 (stereo not drawn) [Example 443] | 96%
COc1ccc(S(=O)(=O)N(C)CCOCC(=O)NC2CCC(C(c3cccc(F)c3)N(C)C)CC2)cc1OC (stereo not drawn) [Example 401] | 99%
CN(C)C(c1ccc(F)cc1)C1CCC(CNC(=O)COCCN(C)S(=O)(=O)c2ccc(OC(F)(F)F)cc2)CC1 (stereo not drawn) [Example 439] | 94%
CN(C)C(c1ccc(F)cc1)C1CCC(CCNC(=O)COCCN(C)S(=O)(=O)c2c(Cl)cc(Cl)cc2Cl)CC1 (stereo not drawn) [Example 386] | 98%
CN(C)C(c1ccc(F)cc1)C1CCC(NC(=O)COCCN(C)S(=O)(=O)c2c(Cl)cccc2Cl)CC1 (stereo not drawn) [Example 363] | 73%
COc1cc(C)c(S(=O)(=O)N(C)CCOCC(=O)NCCC2CCC(C(c3ccc(F)cc3)N(C)C)CC2)c(C)c1 (stereo not drawn) [Example 392] | 89%
CN(C)C(c1ccc(Cl)cc1)C1CCC(CCNC(=O)COC2CCN(S(=O)(=O)c3ccccc3)C2)CC1 (stereo not drawn) [Example 375] | 88%
